Reference: patent US7407940B2, “Antimicrobial hexapeptides” (Helix BioMedix Inc., priority 2005, dated 2008)
≈ marks a conversion by molar mass, not a printed value. Like-named read-outs stand apart in the source and are kept apart here. Where a SMILES comes first, the peptide text is derived from it. Where no end group is shown, it is not given here. The star is where a group is joined. Pentadecanoyl = CCCCCCCCCCCCCCC(=O)*; Tridecanoyl = CCCCCCCCCCCCC(=O)*; Myristoyl = CCCCCCCCCCCCCC(=O)*; Lauroyl = CCCCCCCCCCCC(=O)*; Octanoyl = CCCCCCCC(=O)*

What was measured:
[1] = test system: azole resistant strains of C. albicans; format: cell-based; parameters: MIC-SEQ ID NO: 55 + azole, peptide part / MIC-SEQ ID NO: 55 + azole, azole part: unit not given beside the values; details: in combination with SEQ ID NO: 55
Experimental: (§1) The fractional inhibitory concentration (FIC) index was used to determine the synergy between antimicrobial agents. Peptide MICs against test microorganisms were determined three times on separate occasions. […]
All strains are azole resistant clinical isolates from Prof. Ted White (Seattle Biotechnology Research Institute, Seattle)

Candida albicans = format: cell-based
Experimental: (§2) MICs (minimal inhibitory concentrations) were determined for the hexapeptides of interest using a slightly modified version of the NCCLS (National Committee for Clinical Laboratory Standards) broth microdilution method as described previously (Steinberg et al., AAC 41: 1738, 1997). Briefly, antimicrobial agents were prepared as 10× concentrates in the most appropriate solvent. For the hexapeptide, 0.01% acetic acid containing 0.2% bovine serum albumin as a carrier protein was used. Inocula were prepared by resuspending colonies from a BAP (please spell out this term) in medium and adjusting the suspension to match that of a 0.5 McFarland standard. The suspension was diluted into fresh medium (as recommended by NCCLS for the organism) to give 2×10^5 to 7×10^5 CFU/ml for bacteria or 2×10^3 to 7×10^3 CFU/ml for Candida. After dispensing 100 μl aliquots of the microbial suspension into each well of a 96-well polypropylene microtiter plate, 11 μl of test compound was added. The MIC was defined as the lowest concentration of drug which prevented visible turbidity after 16 to 20 hours (bacteria) or 46 to 50 hours (Candida) at 35° C.

[2] = parameters: species or system Sprague-Dawley rats; details: rat, in vivo
Description: Each wound observed at each dressing change and the wound surface and tissue reaction assessed. There were 5 parameters of wound status that were checked: • i. Wound Film Security—Was the adhesive film used to cover the wound still completely adherent to the skin around the wound? • ii. Wound Surface—What was the exact visual appearance of the wound surface? • iii. Amount of Exudate—How much exudate was trapped under the film? In many cases, accumulated exudate causes the film to lose adherence and the exudates will escape. • iv. Severity of Tissue Reaction—A subjective rating of extent of tissue reaction on a scale of 1 (minimal), 2 (moderate), 3 (extensive). • v. % of Tissue Involved—In some situations, the wound surface contained denatures, friable tissue that could be wiped off with pressure applied to gauze. This test was used to better differentiate denatured tissue from viscous exudates.

Staphylococcus aureus = format: cell-based
Experimental: as §2

Pseudomonas aeruginosa = format: cell-based; parameters: MIC, lipid length SAR: unit not given here; details: for MIC, lipid length SAR: P.aeruginosa; for MIC: agent alone
Experimental: as §2

Trychophyton rubrum = assay: MIC100 against dermatophyte Trychophyton rubrum; format: cell-based; details: T. rubrum; at 10 days
Experimental: (§3) In order to compare the activity of various antimicrobial peptides, including hexapeptide SEQ ID NO:1 (P0666), MIC were determined against the dermatophytes Trychophyton rubrum and Trychophyton mentagrophytes. The concentration of samples investigated were: 2000, 1000, 500, 250 and 125 μg/ml, respectively. The medium used was modified Sabouraud's media without agar. For a 100 mL of modified Sabouraud medium: 3 g of Sabouraud's dextrose broth (Difco) was mixed into 100 mL of deionized water. The pH was adjusted to 7.0 with 0.1 N NaOH. The solution was autoclaved for thirty minutes. 940 μL of medium was poured into sterile 20 mL test tubes with plastic caps and was allowed to cool.
(§4) 50 μL of […] was added to each 20 mL test tube to make the required concentration. A control tube was composed of 50 μL of saline without sample. For the MIC experiments,
(§5) 10 μL of organism suspended in saline was added to the each 20 mL test tube and vortexed slightly. Each of the test tubes was covered in parafilm and maintained on a shaker at 27° C. at a speed of approximately 100 rpm.
(§6) The growth/inhibition of the organism was observed on a daily basis. […] The Minimum Inhibition Concentration (MIC100) for compounds F1 to F10 against fungus Trychophyton rubrum and Trychophyton mentagrophytes at 10 days.

[3] = test system: Trychophyton mentagrophytes; assay: MIC100 against dermatophyte Trychophyton mentagrophytes; format: cell-based; details: T. mentagrophytes; at 10 days
Experimental: as §3, §4, §5, §6

MRSA = assay: Kill curve in 10% sheep serum-phosphate buffer against MRSA; format: cell-based, S. aureus; parameters: MRSA count in kill curve: unit not given here
P. acnes = assay: Activity against extended panel of P. acnes; format: cell-based; parameters: unit not given here
Description: A very promising application for short bioactive peptides is for dermatological indications such as acne.

[4] = test system: Salmonella typhimurium 14028S; assay: MIC, broth microdilution, S. typhimurium; format: cell-based; parameters: unit not given here; details: S.typhimurium
Experimental: as §2

P. aeruginosa = format: cell-based; details: combined with SEQ ID NO: 55
Experimental: as §1

## Clc1ccccc1C(c1ccccc1)(c1ccccc1)n1ccnc1 [Clotrimazole, clotrimazole, reference compound]
[1]; C. albicans #185
  MIC-SEQ ID NO: 55 + azole, azole part: 12.5
[1]; C. albicans #186
  MIC-SEQ ID NO: 55 + azole, azole part: 12.5
[1]; C. albicans #187
  MIC-SEQ ID NO: 55 + azole, azole part: 25
[1]; C. albicans #192
  MIC-SEQ ID NO: 55 + azole, azole part: 50
[1]; C. albicans #196
  MIC-SEQ ID NO: 55 + azole, azole part: 50
[1]; C. albicans #199
  MIC-SEQ ID NO: 55 + azole, azole part: 25
Candida albicans; T.W. Candida #184, azole resistant clinical isolate
  MIC: > 256 µg/mL
Candida albicans; T.W. Candida #185 (CDR1,2), azole resistant clinical isolate
  MIC: 128 µg/mL (≈ 371 µM)
Candida albicans; T.W. Candida #186 (CDR1,2), azole resistant clinical isolate
  MIC: 32 µg/mL (≈ 92.8 µM)
Candida albicans; T.W. Candida #187 (CDR1,2), azole resistant clinical isolate
  MIC: > 256 µg/mL
Candida albicans; T.W. Candida #192 (CDR1,2), azole resistant clinical isolate
  MIC: 128 µg/mL (≈ 371 µM)
Candida albicans; T.W. Candida #193, azole resistant clinical isolate
  MIC: 0.5 µg/mL (≈ 1.45 µM)
Candida albicans; T.W. Candida #194, azole resistant clinical isolate
  MIC: > 256 µg/mL
Candida albicans; T.W. Candida #195, azole resistant clinical isolate
  MIC: 256 µg/mL (≈ 742 µM)
Candida albicans; T.W. Candida #196 (CDR1,2), azole resistant clinical isolate
  MIC: 64 µg/mL (≈ 186 µM)
Candida albicans; T.W. Candida #197, azole resistant clinical isolate
  MIC: > 256 µg/mL
Candida albicans; T.W. Candida #198, azole resistant clinical isolate
  MIC: > 256 µg/mL
Candida albicans; T.W. Candida #199 (CDR1,2), azole resistant clinical isolate
  MIC: 64 µg/mL (≈ 186 µM)

## CCCCCCCC(=O)N[C@@H](CCCCN)C(=O)N[C@@H](Cc1ccccc1)C(=O)N[C@@H](CCCCN)C(=O)N[C@@H](Cc1c[nH]c2ccccc12)C(=O)N1CCC[C@H]1C(=O)N[C@@H](Cc1c[nH]c2ccccc12)C(N)=O [SEQ ID NO: 55 (P-1032)] (Octanoyl-KFKWPW-NH2)
[2]
  Tissue reaction severity: 1

## CCCCCCCCCCCC(=O)N[C@@H](CCCCN)C(=O)N[C@@H](Cc1ccccc1)C(=O)N[C@@H](CCCCN)C(=O)N[C@@H](Cc1c[nH]c2ccccc12)C(=O)N1CCC[C@H]1C(=O)N[C@@H](Cc1c[nH]c2ccccc12)C(N)=O [compound 72] (Lauroyl-KFKWPW-NH2)
Staphylococcus aureus
  Minimal Inhibitory Concentrations (Mics): 4-8 Mg/Ml

## CCCCCCCCCCCCCC(=O)N[C@@H](CCCCN)C(=O)N[C@@H](Cc1ccccc1)C(=O)N[C@@H](CCCCN)C(=O)N[C@@H](Cc1c[nH]c2ccccc12)C(=O)N1CCC[C@H]1C(=O)N[C@@H](Cc1c[nH]c2ccccc12)C(N)=O [compound 77] (Myristoyl-KFKWPW-NH2)
Pseudomonas aeruginosa
  Minimal Inhibitory Concentrations (Mics): 64-128 Mg/Ml
Candida albicans
  Minimal Inhibitory Concentrations (Mics): 4-8 Mg/Ml
Staphylococcus aureus
  Minimal Inhibitory Concentrations (Mics): 8-16 Mg/Ml

## CCCCCCCCCCCCCCC(=O)N[C@@H](CCCCN)C(=O)N[C@@H](Cc1ccccc1)C(=O)N[C@@H](CCCCN)C(=O)N[C@@H](Cc1c[nH]c2ccccc12)C(=O)N1CCC[C@H]1C(=O)N[C@@H](Cc1c[nH]c2ccccc12)C(N)=O [compound 78] (Pentadecanoyl-KFKWPW-NH2)
Staphylococcus aureus
  Minimal Inhibitory Concentrations (Mics): 32-64 Mg/Ml

## CCCCCCCCCCCCC(=O)N[C@@H](CCCCN)C(=O)N[C@@H](Cc1ccccc1)C(=O)N[C@@H](CCCCN)C(=O)N[C@@H](Cc1c[nH]c2ccccc12)C(=O)N1CCC[C@H]1C(=O)N[C@@H](Cc1c[nH]c2ccccc12)C(N)=O [compound 80] (Tridecanoyl-KFKWPW-NH2)
Staphylococcus aureus
  Minimal Inhibitory Concentrations (Mics): 2-4 Mg/Ml

## FAKLLAKALKKLL-NH2 [SEQ ID NO: 87]
Trychophyton rubrum
  MIC100: 500 µg/mL
[3]
  MIC100: 500 µg/mL

## FAKLLAKLAKKLL-NH2 [SEQ ID NO: 89]
Trychophyton rubrum
  MIC100: 500 µg/mL
[3]
  MIC100: 500 µg/mL

## FALKALKKLKKALKKAL-NH2 [SEQ ID NO: 86]
Trychophyton rubrum
  MIC100: 1000 µg/mL
[3]
  MIC100: 250 µg/mL

## H-KWKWFW-NH2 [compound 3]
Candida albicans
  Minimal Inhibitory Concentrations (Mics): 64-64 Mg/Ml
Staphylococcus aureus
  Minimal Inhibitory Concentrations (Mics): 32-64 Mg/Ml

## H-RFKWFW-NH2 [compound 7]
Candida albicans; C. albicans strain 105
  Minimal Inhibitory Concentrations (Mics): 64-128^1 Mg/Ml
Staphylococcus aureus
  Minimal Inhibitory Concentrations (Mics): 64-128 Mg/Ml

## KFKWPW-NH2 [SEQ ID NO: 1, KFKWPW-NH2]
Pseudomonas aeruginosa
  MIC, lipid length SAR: 32
Trychophyton rubrum
  MIC100: 250 µg/mL
MRSA; buffer, 2 mg/ml, 30 min
  MRSA count in kill curve: 99200
MRSA; buffer, 2 mg/ml, 1 hour
  MRSA count in kill curve: 62800
MRSA; buffer, 2 mg/ml, 2 hours
  MRSA count in kill curve: 99200
MRSA; buffer, 2 mg/ml, 3 hours
  MRSA count in kill curve: 99200
MRSA; buffer, 2 mg/ml, 4 hours
  MRSA count in kill curve: 99200
MRSA; buffer, 2 mg/ml, 5 hours
  MRSA count in kill curve: 99200
MRSA; serum, 1 mg/ml, 30 min
  MRSA count in kill curve: 102300
MRSA; serum, 1 mg/ml, 1 hour
  MRSA count in kill curve: 99600
MRSA; serum, 1 mg/ml, 2 hours
  MRSA count in kill curve: 15110
MRSA; serum, 1 mg/ml, 3 hours
  MRSA count in kill curve: 12080
MRSA; serum, 1 mg/ml, 4 hours
  MRSA count in kill curve: 5020
MRSA; serum, 1 mg/ml, 5 hours
  MRSA count in kill curve: 2570
MRSA; serum, 2 mg/ml, 30 min
  MRSA count in kill curve: 9800
MRSA; serum, 2 mg/ml, 1 hour
  MRSA count in kill curve: 3200
MRSA; serum, 2 mg/ml, 2 hours
  MRSA count in kill curve: 630
MRSA; serum, 2 mg/ml, 3 hours
  MRSA count in kill curve: 250
MRSA; serum, 2 mg/ml, 4 hours
  MRSA count in kill curve: 70
MRSA; serum, 2 mg/ml, 5 hours
  MRSA count in kill curve: 50
[3]
  MIC100: 250 µg/mL

## Lau-KFKWPW-NH2 (Lauroyl-KFKWPW-NH2; SMILES CCCCCCCCCCCC(=O)N[C@@H](CCCCN)C(=O)N[C@@H](Cc1ccccc1)C(=O)N[C@@H](CCCCN)C(=O)N[C@@H](Cc1c[nH]c2ccccc12)C(=O)N1CCC[C@H]1C(=O)N[C@@H](Cc1c[nH]c2ccccc12)C(N)=O) [SEQ ID NO: 72]
Pseudomonas aeruginosa
  MIC, lipid length SAR: 32
P. acnes; ATCC 6922
  Activity (MIC) against P. acnes: 1
P. acnes; ATCC 6923
  Activity (MIC) against P. acnes: 1
P. acnes; ATCC 25746
  Activity (MIC) against P. acnes: 1
P. acnes; ATCC 29399
  Activity (MIC) against P. acnes: 2
P. acnes; ATCC 33179
  Activity (MIC) against P. acnes: 1
P. acnes; ATCC 51277
  Activity (MIC) against P. acnes: 1
[4]
  MIC, lipid length SAR: 32

## Tri-KFKWPW-NH2 (Tridecanoyl-KFKWPW-NH2; SMILES CCCCCCCCCCCCC(=O)N[C@@H](CCCCN)C(=O)N[C@@H](Cc1ccccc1)C(=O)N[C@@H](CCCCN)C(=O)N[C@@H](Cc1c[nH]c2ccccc12)C(=O)N1CCC[C@H]1C(=O)N[C@@H](Cc1c[nH]c2ccccc12)C(N)=O) [SEQ ID NO: 80]
Pseudomonas aeruginosa
  MIC, lipid length SAR: 32
[4]
  MIC, lipid length SAR: 32-64

## polymyxin B [reference compound]
Pseudomonas aeruginosa; P. aeruginosa 100609, tobromycin resistant
  MIC: 0.5 µg/mL
Pseudomonas aeruginosa; P. aeruginosa H187, wide type
  MIC: 0.5 µg/mL
Pseudomonas aeruginosa; P. aeruginosa H401, mucoid clinical isolate
  MIC: 0.25 µg/mL
Pseudomonas aeruginosa; P. aeruginosa M917, multi-drug resistant clinical isolate
  MIC: 1 µg/mL
P. aeruginosa; P. aeruginosa 100609
  MIC-PXB-combined: 0.125 µg/mL
P. aeruginosa; P. aeruginosa H187
  MIC-PXB-combined: 0.06 µg/mL
P. aeruginosa; P. aeruginosa H401
  MIC-PXB-combined: 0.0625 µg/mL
P. aeruginosa; P. aeruginosa M917
  MIC-PXB-combined: 0.25 µg/mL
